Like-named read-outs stand apart in the source and are kept apart here.
Assays:
[1] = tested on: whiteleg shrimps (Litopenaeus vannamei)
Experimental: Water quality parameters, including salinity, dissolved oxygen, pH and total ammonia nitrogen (TAN) were monitored regularly in both control and treated ponds. The growth rate of the shrimps was monitored regularly. Total number was counted and mean body weight of shrimp was measured. Based on recording the weight of shrimp and counting the number of shrimps, weight gain, feed conversion ratio (FCR) and survival were calculated.

whiteleg shrimps [2] = tested on: whiteleg shrimps
Source text: In […] further experiments were done in Gujarat-India on whiteleg shrimps.

whiteleg shrimp = tested on: whiteleg shrimp
Source text: Trials are done in Northern part, Central part and Southern part in Vietnam, 2020-2021.

[3] = tested on: Tiger shrimps (Penaeus monodon); conditions: three ponds, applied after each change of water every 5 days
Experimental: Tiger shrimps (Penaeus monodon), also named giant tiger prawn, asian tiger prawn or black tiger shrimp, is one of the most popular cultured shrimp species in the world.
A small scale trial was carried out in 2019 in Chittagong-Bangladesh in three ponds of +2.5 ha.

Pangasius hypophthalmus = assay: Experiment 7C: pond trial on Pangasius in Bangladesh; assay type: in vivo; conditions: overall results of the 8 ponds
Source text: Pangas belonging to the genus of medium-large catfishes, is a relatively new and fast-growing fish species that has great potential for production and export growth in Bangladesh. Polyculture of pangasius (P. hypophthalmus) with carps is the existing culture practice along with monoculture being practiced by many households in Bangladesh.
Trials have been done in 2019 in Mymensingh region on 4 ponds with an average of 1,4 ha and an average depth of 1.5 m in the dry season and 2 m. in the rainy season (May to November). For feeding standard commercial pelleted feeds were used.

trypsin gene = conditions: hepatopancreas, after 56 days, versus control, FIG. 2
Experimental: At the end of the grow-out period, shrimp were sampled for the growth and feed utilisation metrics. Water quality parameters were measured three times daily. At the end of the trial, shrimps were assessed for the growth performance as described below. Shrimp from each treatment group were examined and the hepato-pancreas removed carefully from 10 individual animals and processed as described below.
For RNA extraction, hepatopancreases were extracted by using trizol reagent (Invitrogen, USA). Briefly, 1 ml of trizol reagent were added into 50-100 mg of tissue samples. then, the samples were homogenized at 3,500 rpm for 1 min by using Micro Smash MS-100R (TOMY, Japan). After incubated sample at RT for 5 min, 200 μl of chloroform were added and mixed vigorous. The samples were centrifuged at 12,000 rpm at 4° C. for 15 min. after collected supernatant into new 1.5 ml tube, 1 volume of isopropanol were added and incubated at −20° C. for 2 h or O/N. Next, RNA pellets were collected by centrifuged at 12,000 rpm at 4° C. for 15 min. then, the pellets were washed with 500 μl of 75% ethanol and dried pellet at 65° C. Lastly, 30 μl of RNase free water was added for dissolved RNA pellet. RNA concentration was measured by using nanodrop spectrophotometer (Thermo Fisher Scientific, USA).

whiteleg shrimps [4] = tested on: whiteleg shrimps; remark: listed apart in the source
whiteleg shrimps [5] = conditions: applied once or twice a day, 6 ponds
[6] = tested on: Pacific Whiteleg shrimp (Litopenaeus vannamei)
Experimental: An 8-week growth trial study on Pacific Whiteleg shrimp (Litopenaeus vannamei) (1.0 g/shrimp) in duplicate was conducted in a 3,200 m2 earthen pond (100,000 shrimps per 1,600 m2) at the GAP certified private shrimp farm, Nakhon Pathom province, Thailand. […] The pond size was 2 Rai (1 Rai is 1,600 m^2). Stocking density is 100,000 shrimps/1 Rai.
Shrimp were fed by automatic feeder four times a day according to the farming standard. […] The bespoke shrimp feed specification was Crude Protein 38%, Crude Fat 7%, and diet pellet sizes of 1.5 mm; 2.0 mm; 2.5 mm that were assigned across the trial period to optimise maximum intake.

α-amylase gene = conditions: hepatopancreas, after 56 days, versus control, FIG. 2
Experimental: For RNA extraction, hepatopancreases were extracted by using trizol reagent (Invitrogen, USA). Briefly, 1 ml of trizol reagent were added into 50-100 mg of tissue samples. then, the samples were homogenized at 3,500 rpm for 1 min by using Micro Smash MS-100R (TOMY, Japan). After incubated sample at RT for 5 min, 200 μl of chloroform were added and mixed vigorous. The samples were centrifuged at 12,000 rpm at 4° C. for 15 min. after collected supernatant into new 1.5 ml tube, 1 volume of isopropanol were added and incubated at −20° C. for 2 h or O/N. Next, RNA pellets were collected by centrifuged at 12,000 rpm at 4° C. for 15 min. then, the pellets were washed with 500 μl of 75% ethanol and dried pellet at 65° C. Lastly, 30 μl of RNase free water was added for dissolved RNA pellet. RNA concentration was measured by using nanodrop spectrophotometer (Thermo Fisher Scientific, USA). […]
Real-time PCR was used to detected growth genes in shrimp.
Reaction mixture for real-time PCR was composed of 1 μl of 100 cDNA, 5 μl of 2× qPCRBIO SyGreen mix, forward and reverse primer at final concentration 0.2 μM and adjusted volume up to 10 μl by nuclease free water. […] The relative fold gene expression level was calculated by using the formula below: […]

[7] = all testing locations in Vietnam, 2020-2021

silicic acid [bioavailable silicic acid compound]
average weight gain of the shrimps compared to control pond ([1]; first experiments, 2017, brackish ponds, Gujarat): 26%
increase (average weight gain) compared to control ([1]; second trial): 17.5%
average yield increase of shrimps (whiteleg shrimps [2]; 8 ponds, 1.5 liters of 2.5% product every 15 days, compared to control): 18.3%
food conversion rate (FCR) (whiteleg shrimps [2]; average of treated ponds (control ponds 1.52)): 1.45
environment, growth, survival, and energy efficiency of shrimp production (whiteleg shrimp; Central Vietnam): remarkably good results
higher yields (average) (whiteleg shrimp; [7]): 18.7%
larger shrimps (average) (whiteleg shrimp; [7]): 14%
overall yield increase (compared to control) [3]: 18.4%
increase of overall yield (Pangasius hypophthalmus; both treatments pooled): 16.6%
overall yield (Pangasius hypophthalmus; both treatments pooled (from 11.400 kg/ha/year)): 13.300 kg/ha/year
trypsin gene expression relative to housekeeping gene (trypsin gene): down regulation
average yield increase of shrimps (whiteleg shrimps [4]; 4 ponds, application every 3 days, brackish water): 24.27%
feed conversion rate (FCR) (whiteleg shrimps [4]; average of treated ponds (control ponds 1.5)): 1.37
overall increase of the yield (whiteleg shrimps [5]): 19%
average (mean) weight of shrimp at end of trial ([6]; 8-weeks growth trial, FIG. 1 (control 9.48)): 12.49 g
Apparent net protein utilization (%) ([6]; 8 weeks, with silicic acid): 36.4 ± 1.4 ^A %
Average daily gain ([6]; 8 weeks, with silicic acid): 0.12 ± 0.02 g/day
Feed conversion ratio ([6]; 8 weeks, with silicic acid): 1.18 ± 0.05 ^A
Final weight (g/shrimp) ([6]; 8 weeks, with silicic acid): 12.49 ± 2.46 g/shrimp
Specific growth rate (%/day) ([6]; 8 weeks, with silicic acid): 3.21 ± 0.20 ^A %/day
Survival rate (%) ([6]; 8 weeks, with silicic acid): 69.8 ± 4.5 ^A %
Total biomass (kg of harvested shrimp) ([6]; 8 weeks, with silicic acid): 1,047 ± 208.25 ^A kg
shrimp performance under pond rearing conditions ([6]; exposed for 8 weeks): significantly better
α-amylase gene expression relative to housekeeping gene (α-amylase gene): down regulation

— US20240224953A1 (Barlaa B.V., priority 2021, published 2024)
